Test results reported in US7420056B2, “Substituted bicyclic imidazo-3-ylamine compounds” (Gruenenthal GmbH, priority 2004, dated 2008).
Counter-ions that a name gives are not always drawn.

These compounds were tested against mGluR5 receptor (Sus scrofa, UniProt I3LUI7) (assay: Affinity for the mGluR5 receptor: inhibition of 3[H]-MPEP binding in pig brain homogenate). Conditions: 10 μM compound, 5 nM 3[H]-MPEP, read-out: mGluR5 receptor inhibition of ^3[H]-MPEP binding [10 μM] in % at a concentration of the example compounds of 10 μM.
Sequence of mGluR5 receptor (I3LUI7 19-1212): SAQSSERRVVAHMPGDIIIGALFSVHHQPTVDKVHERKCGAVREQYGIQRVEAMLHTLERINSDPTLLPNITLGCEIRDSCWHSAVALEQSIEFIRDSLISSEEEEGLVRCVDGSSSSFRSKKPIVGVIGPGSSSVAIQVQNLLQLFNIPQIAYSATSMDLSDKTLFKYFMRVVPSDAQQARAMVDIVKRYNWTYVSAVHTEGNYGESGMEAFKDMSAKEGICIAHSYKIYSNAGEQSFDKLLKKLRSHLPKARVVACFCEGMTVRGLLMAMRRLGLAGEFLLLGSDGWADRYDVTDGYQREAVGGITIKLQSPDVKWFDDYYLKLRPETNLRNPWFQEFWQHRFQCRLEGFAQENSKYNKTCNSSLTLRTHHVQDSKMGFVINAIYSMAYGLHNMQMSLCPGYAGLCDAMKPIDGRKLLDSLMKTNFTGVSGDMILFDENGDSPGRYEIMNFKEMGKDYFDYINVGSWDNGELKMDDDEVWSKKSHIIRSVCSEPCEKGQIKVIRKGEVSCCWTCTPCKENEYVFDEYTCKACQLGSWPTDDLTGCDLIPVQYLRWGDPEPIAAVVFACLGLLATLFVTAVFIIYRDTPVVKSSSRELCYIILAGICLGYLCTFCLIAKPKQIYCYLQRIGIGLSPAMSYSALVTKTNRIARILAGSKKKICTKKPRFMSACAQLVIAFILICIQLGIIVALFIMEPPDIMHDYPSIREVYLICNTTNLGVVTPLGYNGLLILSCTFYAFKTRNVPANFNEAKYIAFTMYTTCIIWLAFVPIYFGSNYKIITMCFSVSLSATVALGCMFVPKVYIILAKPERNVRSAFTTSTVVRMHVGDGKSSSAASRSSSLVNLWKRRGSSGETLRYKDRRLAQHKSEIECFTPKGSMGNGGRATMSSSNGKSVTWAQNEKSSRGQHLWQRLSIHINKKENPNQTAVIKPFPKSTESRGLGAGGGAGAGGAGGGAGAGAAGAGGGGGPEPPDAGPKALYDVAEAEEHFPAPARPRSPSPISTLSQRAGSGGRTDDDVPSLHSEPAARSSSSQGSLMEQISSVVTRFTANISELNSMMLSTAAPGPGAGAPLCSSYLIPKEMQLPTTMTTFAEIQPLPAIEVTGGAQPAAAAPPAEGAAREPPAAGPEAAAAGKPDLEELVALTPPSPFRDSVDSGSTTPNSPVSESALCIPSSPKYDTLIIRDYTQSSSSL
Outline: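 Test compounds were screened at 10 μM for displacement of 5 nM [3H]-MPEP from pig brain homogenate (450 μg protein, pH 8.0 Hepes buffer) over 60 min at room temperature. After filtration, scintillation counting gave the read-out. 10 μM unlabelled MPEP set nonspecific binding.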

How did the inhibition at 10 µM turn out when `CC(C)(C)CC(C)(C)Nc1c(-c2ccc(C#Cc3ccccc3)nc2)nc2ccccn12` [Example 284, 2-(6-(phenylethynyl)pyridin-3-yl)-N-(2,4,4-trimethylpentan-2-yl)imidazo[1,2-a]pyridin-3-amine] was run?
The inhibition at 10 µM was 68%.

How did the inhibition at 10 µM turn out when `C(#Cc1ccccn1)c1cccc(-c2nc3ccccn3c2NC2CCCC2)c1` [Example 260, N-cyclopentyl-2-(3-(pyridin-2-ylethynyl)phenyl)imidazo[1,2-a]pyridin-3-amine] was run?
The inhibition at 10 µM was 64%.

`CCc1ccn2c(NC3CCCCC3)c(-c3cccc(C#Cc4ccccn4)c3)nc2c1` [Example 300, N-cyclohexyl-7-ethyl-2-(3-(pyridin-2-ylethynyl)phenyl)imidazo[1,2-a]pyridin-3-amine] was tested. Which inhibition at 10 µM did it give?
The inhibition at 10 µM was 50%.

For `C(#Cc1ccccn1)c1ccc(-c2nc3cnccn3c2NC2CCCC2)cc1` [Example 240, N-cyclopentyl-2-(4-(pyridin-2-ylethynyl)phenyl)imidazo[1,2-a]pyrazin-3-amine], which inhibition at 10 µM is on record?
Its inhibition at 10 µM is 95%.

For `Clc1ccc2nc(-c3ccc(C#Cc4ccccn4)s3)c(NC3CCCC3)n2c1` [Example 310, 6-chloro-N-cyclopentyl-2-(5-(pyridin-2-ylethynyl)thiophen-2-yl)imidazo[1,2-a]pyridin-3-amine], which inhibition at 10 µM is on record?
Its inhibition at 10 µM is 86%.

With `CCCC(C)(C)Nc1c(-c2cc(C#Cc3ccccc3)cs2)nc2cnccn12` [Example 214, N-(2-methylpentan-2-yl)-2-(4-(phenylethynyl)thiophen-2-yl)imidazo[1,2-a]pyrazin-3-amine] as the compound, how does the inhibition at 10 µM read?
The inhibition at 10 µM was 77%.

How did the inhibition at 10 µM turn out when `CC(C)(C)c1ccn2c(Nc3ccccc3F)c(-c3ccc(C#Cc4ccccc4)s3)nc2c1` [Example 49, [7-tert-butyl-2-(5-phenylethynyl-thiophen-2-yl)-imidazo[1,2-a]pyridin-3-yl]-(2-fluoro-phenyl)-amine] was run?
Its inhibition at 10 µM is 85%.

`CC(C)(C)Nc1c(-c2cccc(C#Cc3ccccn3)c2)nc2ccccn12` [Example 261, N-tert-butyl-2-(3-(pyridin-2-ylethynyl)phenyl)imidazo[1,2-a]pyridin-3-amine] was tested. Which inhibition at 10 µM did it give?
The inhibition at 10 µM was 79%.

For `Cc1ccn2c(NC3CCCCC3)c(-c3ccc(C#Cc4ccccn4)s3)nc2c1` [Example 274, N-cyclohexyl-7-methyl-2-(5-(pyridin-2-ylethynyl)thiophen-2-yl)imidazo[1,2-a]pyridin-3-amine], which inhibition at 10 µM is on record?
Its inhibition at 10 µM is 85%.

With `C(#Cc1ccc(-c2nc3ccccn3c2NC2CCCCC2)o1)c1ccccn1` [Example 286, N-cyclohexyl-2-(5-(pyridin-2-ylethynyl)furan-2-yl)imidazo[1,2-a]pyridin-3-amine] as the compound, how does the inhibition at 10 µM read?
The inhibition at 10 µM was 72%.

For `Fc1ccc(Nc2c(-c3ccc(C#Cc4ccccc4)s3)nc3cc(-c4ccccc4)ccn23)cc1Cl` [Example 33, (3-chloro-4-fluoro-phenyl)-[7-phenyl-2-(5-phenylethynyl-thiophen-2-yl)-imidazo[1,2-a]pyridin-3-yl]-amine], which inhibition at 10 µM is on record?
Its inhibition at 10 µM is 98%.

For `CC(C)(C)CC(C)(C)Nc1c(-c2ccc(C#Cc3ccccn3)cc2)nc2c(Cl)cc(C(F)(F)F)cn12` [Example 241, 8-chloro-2-(4-(pyridin-2-ylethynyl)phenyl)-6-(trifluoromethyl)-N-(2,4,4-trimethylpentan-2-yl)imidazo[1,2-a]pyridin-3-amine], which inhibition at 10 µM is on record?
The inhibition at 10 µM was 65%.

With `C(#Cc1csc(-c2nc3cnccn3c2NC2CCCC2)c1)c1ccccc1` [Example 212, N-cyclopentyl-2-(4-(phenylethynyl)thiophen-2-yl)imidazo[1,2-a]pyrazin-3-amine] as the compound, how does the inhibition at 10 µM read?
The inhibition at 10 µM was 90%.

With `COc1ccccc1CNc1c(-c2ccc(C#Cc3ccccc3)o2)nc2cnccn12` [Example 207, N-(2-methoxybenzyl)-2-(5-(phenylethynyl)furan-2-yl)imidazo[1,2-a]pyrazin-3-amine] as the compound, how does the inhibition at 10 µM read?
Its inhibition at 10 µM is 35%.

For `CCCCNc1c(-c2cc(C#Cc3ccccc3)cs2)nc2ccc(Br)c(C)n12` [Example 222, 6-bromo-N-butyl-5-methyl-2-(4-(phenylethynyl)thiophen-2-yl)imidazo[1,2-a]pyridin-3-amine], which inhibition at 10 µM is on record?
Its inhibition at 10 µM is 33%.

`COc1cccc(CCNc2c(-c3cc(C#Cc4ccccc4)cs3)nc3cnccn23)c1` [Example 202, N-(3-methoxyphenethyl)-2-(4-(phenylethynyl)thiophen-2-yl)imidazo[1,2-a]pyrazin-3-amine] was tested. Which inhibition at 10 µM did it give?
The inhibition at 10 µM was 70%.

How did the inhibition at 10 µM turn out when `Cc1cccn2c(NC3CCCCC3)c(-c3ccc(C#Cc4ccccn4)cc3)nc12` [Example 297, N-cyclohexyl-8-methyl-2-(4-(pyridin-2-ylethynyl)phenyl)imidazo[1,2-a]pyridin-3-amine] was run?
The inhibition at 10 µM was 80%.

Which inhibition at 10 µM does the source give for `Fc1ccc(Nc2c(-c3ccc(C#Cc4ccccc4)s3)nc3cc(CCCc4ccccc4)ccn23)c(F)c1` [Example 50, (2,4-difluoro-phenyl)-[2-(5-phenylethynyl-thiophen-2-yl)-7-(3-phenyl-propyl)-imidazo[1,2-a]pyridin-3-yl]-amine] here?
Its inhibition at 10 µM is 90%.

For `Cc1cc(C)n2c(NCCc3ccccc3)c(-c3ccc(C#Cc4ccccc4)s3)nc2n1` [Example 194, 5,7-dimethyl-N-phenethyl-2-(5-(phenylethynyl)thiophen-2-yl)imidazo[1,2-a]pyrimidin-3-amine], which inhibition at 10 µM is on record?
The inhibition at 10 µM was 30%.

`CCCc1ccn2c(Nc3ccco3)c(-c3ccc(C#Cc4ccccc4)o3)nc2c1` [Example 225, N-(furan-2-yl)-2-(5-(phenylethynyl)furan-2-yl)-7-propylimidazo[1,2-a]pyridin-3-amine] was tested. Which inhibition at 10 µM did it give?
Its inhibition at 10 µM is 43%.

Which inhibition at 10 µM does the source give for `C(#Cc1csc(-c2nc3cc(-c4ccccc4)ccn3c2NCCc2cccs2)c1)c1ccccc1` [Example 235, 7-phenyl-2-(4-(phenylethynyl)thiophen-2-yl)-N-(2-(thiophen-2-yl)ethyl)imidazo[1,2-a]pyridin-3-amine] here?
The inhibition at 10 µM was 32%.

`C(#Cc1csc(-c2nc3cnccn3c2NCCc2cccs2)c1)c1ccccc1` [Example 203, 2-(4-(phenylethynyl)thiophen-2-yl)-N-(2-(thiophen-2-yl)ethyl)imidazo[1,2-a]pyrazin-3-amine] was tested. Which inhibition at 10 µM did it give?
The inhibition at 10 µM was 60%.

With `Cc1cc(C)n2c(NCc3ccc(F)cc3)c(-c3ccc(C#Cc4ccccc4)s3)nc2c1` [Example 52, [5,7-dimethyl-2-(5-phenylethynyl-thiophen-2-yl)-imidazo[1,2-a]pyridin-3-yl]-(4-fluoro-benzyl)-amine] as the compound, how does the inhibition at 10 µM read?
The inhibition at 10 µM was 75%.

How did the inhibition at 10 µM turn out when `Clc1ccc(CCNc2c(-c3cc(C#Cc4ccccc4)cs3)nc3cc(-c4ccccc4)ccn23)cc1` [Example 228, N-(4-chlorophenethyl)-7-phenyl-2-(4-(phenylethynyl)thiophen-2-yl)imidazo[1,2-a]pyridin-3-amine] was run?
The inhibition at 10 µM was 43%.

Same assay, conditions: 3[H]-MPEP binding

For `CC(C)(C)Nc1c(-c2ccc(C#Cc3cccc(F)c3)s2)nc2cnccn12` [Example 104, N-tert-butyl-2-(5-((3-fluorophenyl)ethynyl)thiophen-2-yl)imidazo[1,2-a]pyrazin-3-amine hydrochloride], which IC50 is on record?
The IC50 was 92 nM.

For `CC(C)(C)Nc1c(-c2ccc(C#Cc3ncccc3F)s2)nc2ccccn12` [Example 336, tert-butyl-{2-[5-(3-fluoro-pyridin-2-ylethynyl)-thiophen-2-yl]-imidazo[1,2-a]pyridin-3-yl}-amine hydrochloride], which IC50 is on record?
The IC50 was 6.1 nM.

For `CC(C)(C)Nc1c(-c2ccc(C#Cc3cccc(-n4cccc4)c3)s2)nc2cnccn12` [Example 148, 2-(5-((3-(1H-pyrrol-1-yl)phenyl)ethynyl)thiophen-2-yl)-N-tert-butylimidazo[1,2-a]pyrazin-3-amine hydrochloride], which IC50 is on record?
Its IC50 is 330 nM.

With `CC(C)(C)CC(C)(C)Nc1c(-c2ccc(C#Cc3ccccn3)s2)nc2cnccn12` [Example 64, [2-(5-pyridin-2-ylethynyl-thiophen-2-yl)-imidazo[1,2-a]pyrazin-3-yl]-(1,1,3,3-tetramethyl-butyl)-amine] as the compound, how does the IC50 read?
The IC50 was 33 nM.

Which IC50 does the source give for `CC(C)(C)Nc1c(-c2cnc(C#Cc3ccncc3)s2)nc2cnccn12` [Example 177, N-tert-butyl-2-(2-(pyridin-4-ylethynyl)thiazol-5-yl)imidazo[1,2-a]pyrazin-3-amine] here?
The IC50 was 16 nM.

Which IC50 does the source give for `CC(C)(C)Nc1c(-c2ccc(C#Cc3cccc(O)c3)s2)nc2cnccn12` [Example 122, 3-((5-(3-(tert-butylamino)imidazo[1,2-a]pyrazin-2-yl)thiophen-2-yl)ethynyl)phenol] here?
Its IC50 is 130 nM.

How did the IC50 turn out when `CC(C)Nc1c(-c2ccc(C#Cc3ccccc3)s2)nc2cnccn12` [Example 109, N-isopropyl-2-(5-(phenylethynyl)thiophen-2-yl)imidazo[1,2-a]pyrazin-3-amine] was run?
The IC50 was 300 nM.

Which IC50 does the source give for `COC(=O)CNc1c(-c2ccc(C#Cc3ccccc3)s2)nc2cnccn12` [Example 75, [2-(5-phenylethynyl-thiophen-2-yl)-imidazo[1,2-a]pyrazin-3-ylamino]-acetic acid methyl ester] here?
Its IC50 is 1290 nM.

With `CC(C)(C)Nc1c(-c2ccc(C#Cc3ncccc3N)s2)nc2ccccn12` [Example 326, {2-[5-(3-amino-pyridin-2-ylethynyl)-thiophen-2-yl]-imidazo[1,2-a]pyridin-3-yl}-tert-butyl-amine] as the compound, how does the IC50 read?
Its IC50 is 39 nM.

For `CC(C)(C)Nc1c(-c2ccc(C#Cc3cccc(C(F)(F)F)c3)s2)nc2cnccn12` [Example 180, N-tert-butyl-2-(5-((3-(trifluoromethyl)phenyl)ethynyl)thiophen-2-yl)imidazo[1,2-a]pyrazin-3-amine hydrochloride], which IC50 is on record?
The IC50 was 580 nM.

For `CC(C)(C)Nc1c(-c2ccc(C#Cc3ccncc3)s2)nc2cnccn12` [Example 76, tert-butyl-[2-(5-pyridin-4-ylethynyl-thiophen-2-yl)-imidazo[1,2-a]pyrazin-3-yl]-amine], which IC50 is on record?
Its IC50 is 3.7 nM.

`CC(=O)Nc1c(-c2ccc(C#Cc3ccccc3)s2)nc2cnccn12` [Example 67, N-[2-(5-phenylethynyl-thiophen-2-yl)-imidazo[1,2-a]pyrazin-3-yl]-acetamide] was tested. Which IC50 did it give?
Its IC50 is 3840 nM.

How did the IC50 turn out when `CC(C)(C)Nc1c(-c2ccc(C#Cc3ccccc3)s2)nc2c3ccccc3ccn12` [Example 125, N-tert-butyl-2-(5-(phenylethynyl)thiophen-2-yl)imidazo[2,1-a]isoquinolin-3-amine] was run?
The IC50 was 6520 nM.
